Converted amounts (≈) assume the structure as drawn. Read-outs that look alike come from different tables or passages of the source.
Tests used:
Format in all cases: cell-based
[1] = system: Candida albicans ATCC 10231; test: In vitro antifungal MIC, Candida albicans ATCC 10231
Description: (§1) The in vitro antifungal activity of the compounds of the present invention against a variety of fungiwas determined as follow: Test medium was prepared by dissolving first 5 g of dextrose and then 6.7 g of Bacto Yeast Nitrogen Base® (commercially available from Difco Laboratories) in 100 mL of distilled water. The solution was filter-sterilized and diluted 1:10 with 0.01M pH 8.0 phosphate buffer solution, and the final pH of the medium adjusted to about pH 7.0 when necessary with either 0.1N hydrochloric acid solution of 0.1N sodium hydroxide solution. […] These concentrated stock solutions were diluted to a concentration of 200 μg/mL (twice the highest concentration desired for testing) with the test medium. Amphotericin B, similarly prepared, was used as a reference antifungal agent.
(§2) The test organisms were then inoculated into test tubes containing approximately 3 to 10 mL of test medium and the test tubes incubated overnight at 37° C. A sample of each overnight culture was placed in a test tube and diluted using the test medium until a reading of 95% transmittance was obtained in a conventional UV/visible spectrophotometer set to 560 nm. The adjusted cultures were then diluted 1:50 with test medium. These diluted cultures served as the inocula for the assays which follow and were used within 15 minutes of preparation.
(§3) Next, 2-fold serial dilutions of each test compound in test medium were prepared in a 96-well microtiter plate using calibrated microdiluters attached to an automatic (hand-held) diluter (available from Dynatech Laboratories).
(§4) Using sterile calibrated droppers or a multi-point dispenser, the diluted inoculum suspension was added to each of the wells in the plate. When inoculation was complete, the microtiter tray was covered with a plastic plate sealer to minimize evaporation. After the plate had been sealed, a hole was made above each well with a sterile 26-gauge syringe needle in order to allow gas exchange. If plate sealers were not available, the microtiter trays were stacked in groups of five or less with an empty tray on top. The microtiter trays were then incubated in a humidified chamber at 35°-37° C. for 48 hours or until growth was visible in the growth control wells.
(§5) The minimum inhibitory concentration (MIC) was defined as the lowest concentration of test compound yielding no growth, a slight haze or sparsely isolated colonies on the inoculum spot as compared to the growth control containing no test compound.

Candida albicans 579A = test: In vitro antifungal MIC, Candida albicans 579A
Description: as §1, §2, §3, §4, §5

Candida albicans CCH 442 = test: In vitro antifungal MIC, Candida albicans CCH 442
Description: as §1, §2, §3, §4, §5

[2] = system: Candida albicans ATCC 38247; test: In vitro antifungal MIC, Candida albicans ATCC 38247
Description: as §1, §2, §3, §4, §5

[3] = system: Candida albicans ATCC 62376; test: In vitro antifungal MIC, Candida albicans ATCC 62376
Description: as §1, §2, §3, §4, §5

[4] = system: Candida tropicalis NRRL-Y-112; test: In vitro antifungal MIC, Candida tropicalis NRRL-Y-112
Description: as §1, §2, §3, §4, §5

Candida kefyr ATCC 28838 = test: In vitro antifungal MIC, Candida kefyr ATCC 28838
Description: as §1, §2, §3, §4, §5

[5] = system: Torulopsis glabrata ATCC 15545; test: In vitro antifungal MIC, Torulopsis glabrata ATCC 15545
Description: as §1, §2, §3, §4, §5

[6] = system: Cryptococcus albidus ATCC 34140; test: In vitro antifungal MIC, Cryptococcus albidus ATCC 34140
Description: as §1, §2, §3, §4, §5

[7] = system: Aspergillus niger ATCC 16404; test: In vitro antifungal MIC, Aspergillus niger ATCC 16404
Description: as §1, §2, §3, §4, §5

[8] = ATCC10231, Candida albicans ATCC 10231, 35°-37° C., 48 hours, read-out: MIC
[9] = Candida albicans 579A, 35°-37° C., 48 hours, read-out: MIC
[10] = CCH442, Candida albicans CCH 442, 35°-37° C., 48 hours, read-out: MIC
[11] = ATCC38247, Candida albicans ATCC 38247, 35°-37° C., 48 hours, read-out: MIC
[12] = ATCC62376, Candida albicans ATCC 62376, 35°-37° C., 48 hours, read-out: MIC
[13] = NRRLY112, Candida tropicalis NRRL-Y-112, 35°-37° C., 48 hours, read-out: MIC
[14] = Kluyveromyces marxianus, ATCC28838, Candida kefyr ATCC 28838, 35°-37° C., 48 hours, read-out: MIC
[15] = Nakaseomyces glabratus, ATCC15545, Torulopsis glabrata ATCC 15545, 35°-37° C., 48 hours, read-out: MIC
[16] = Naganishia albida, ATCC34140, Cryptococcus albidus ATCC 34140, 35°-37° C., 48 hours, read-out: MIC
[17] = ATCC16404, Aspergillus niger ATCC 16404, 35°-37° C., 48 hours, read-out: MIC

Row | SMILES | MIC [1, 8] [µg/mL] | MIC (Candida albicans 579A; [9]) [µg/mL] | MIC (Candida albicans CCH 442; [10]) [µg/mL] | MIC [2, 11] [µg/mL] | MIC [3, 12] [µg/mL] | MIC [4, 13] [µg/mL] | MIC (Candida kefyr ATCC 28838; [14]) [µg/mL] | MIC [5, 15] [µg/mL] | MIC [6, 16] [µg/mL] | MIC [7, 17] [µg/mL] | further results
1 | CC[Si](CC)(CC)OCCN1Sc2ccccc2[S+]1[O-] (centres unmarked) [Example 20, 2-(2-(triethylsilyloxy)ethyl)-1,3,2-benzodithiazole-1-oxide] | – | – | – | – | – | – | – | – | – | – | MIC ([1]; Candida albicans, ATCC10231, 48 h): 25 µg/mL (≈ 75.9 µM); MIC (Candida albicans 579A; Candida albicans, 579A, 48 h): 25 µg/mL (≈ 75.9 µM); MIC (Candida albicans CCH 442; Candida albicans, CCH442, 48 h): 50 µg/mL (≈ 152 µM); MIC ([2]; Candida albicans, ATCC38247, 48 h): 3.12 µg/mL (≈ 9.47 µM); MIC ([3]; Candida albicans, ATCC62376, 48 h): 25 µg/mL (≈ 75.9 µM); MIC ([4]; Candida tropicalis, NRRLY112, 48 h): 25 µg/mL (≈ 75.9 µM); MIC (Candida kefyr ATCC 28838; Kluyveromyces marxianus, ATCC28838, 48 h): 1.56 µg/mL (≈ 4.73 µM); MIC ([5]; Nakaseomyces glabratus, ATCC15545, 48 h): 25 µg/mL (≈ 75.9 µM); MIC ([6]; Naganishia albida, ATCC34140, 48 h): 12.5 µg/mL (≈ 37.9 µM); MIC ([7]; Aspergillus niger, ATCC16404, 48 h): 12.5 µg/mL (≈ 37.9 µM)
2 | CCOC(=O)CN1Sc2ccccc2[S+]1[O-] (centres unmarked) [Example 21, ethyl 2-(1,3,2-benzodithiazole-2-yl-1-oxide)-acetate] | – | – | – | – | – | – | – | – | – | – | MIC ([1]; Candida albicans ATCC 10231, 35°-37° C., 48 hours): 6.25 µg/mL (≈ 24.3 µM); MIC (Candida albicans 579A; Candida albicans 579A, 35°-37° C., 48 hours): 6.25 µg/mL (≈ 24.3 µM); MIC (Candida albicans CCH 442; Candida albicans CCH 442, 35°-37° C., 48 hours): 6.25 µg/mL (≈ 24.3 µM); MIC ([2]; Candida albicans ATCC 38247, 35°-37° C., 48 hours): 6.25 µg/mL (≈ 24.3 µM); MIC ([3]; Candida albicans ATCC 62376, 35°-37° C., 48 hours): 6.25 µg/mL (≈ 24.3 µM); MIC ([4]; Candida tropicalis NRRL-Y-112, 35°-37° C., 48 hours): 6.25 µg/mL (≈ 24.3 µM); MIC (Candida kefyr ATCC 28838; Candida kefyr ATCC 28838, 35°-37° C., 48 hours): 0.78 µg/mL (≈ 3.03 µM); MIC ([5]; Torulopsis glabrata ATCC 15545, 35°-37° C., 48 hours): 3.12 µg/mL (≈ 12.1 µM); MIC ([6]; Cryptococcus albidus ATCC 34140, 35°-37° C., 48 hours): 12.5 µg/mL (≈ 48.6 µM); MIC ([7]; Aspergillus niger ATCC 16404, 35°-37° C., 48 hours): 1.56 µg/mL (≈ 6.06 µM)
3 | O=C(O)COCCN1Sc2ccccc2[S+]1[O-] (centres unmarked) [Example 22, 2-(2-(1,3,2-benzodithiazole-2-yl-1-oxide)ethyloxy) acetic acid] | 100 (≈ 366 µM) | 100 (≈ 366 µM) | 100 (≈ 366 µM) | 50 (≈ 183 µM) | 100 (≈ 366 µM) | 100 (≈ 366 µM) | 3.12 (≈ 11.4 µM) | 100 (≈ 366 µM) | 100 (≈ 366 µM) | 25 (≈ 91.5 µM) | –
4 | CN(C)CCCN1Sc2ccccc2[S+]1[O-] (centres unmarked) [Example 23, 2-(3-(N,N-dimethylamino)-n-propyl)-1,3,2-benzodithiazole-1-oxide] | 50 (≈ 195 µM) | 50 (≈ 195 µM) | 50 (≈ 195 µM) | 12.5 (≈ 48.8 µM) | 50 (≈ 195 µM) | 50 (≈ 195 µM) | 3.12 (≈ 12.2 µM) | 50 (≈ 195 µM) | 12.5 (≈ 48.8 µM) | 12.5 (≈ 48.8 µM) | –
5 | [O-][S+]1c2ccccc2SN1CCN1CCCCC1 (centres unmarked) [Example 24, 2-(2-(1-piperidinyl)ethyl)-1,3,2-benzodithiazole-1-oxide] | 25 (≈ 88.5 µM) | 25 (≈ 88.5 µM) | 25 (≈ 88.5 µM) | 12.5 (≈ 44.3 µM) | 25 (≈ 88.5 µM) | 25 (≈ 88.5 µM) | 0.78 (≈ 2.76 µM) | 12.5 (≈ 44.3 µM) | 12.5 (≈ 44.3 µM) | 3.12 (≈ 11 µM) | –

Second part, led by results:

Row | MIC [1, 8] [µg/mL] | MIC (Candida albicans 579A; [9]) [µg/mL] | MIC (Candida albicans CCH 442; [10]) [µg/mL] | MIC [2, 11] [µg/mL] | MIC [3, 12] [µg/mL] | MIC [4, 13] [µg/mL] | MIC (Candida kefyr ATCC 28838; [14]) [µg/mL] | MIC [5, 15] [µg/mL] | MIC [6, 16] [µg/mL] | MIC [7, 17] [µg/mL] | SMILES | further results
6 | 6.25 (≈ 19.8 µM) | 3.12 (≈ 9.89 µM) | 1.56 (≈ 4.95 µM) | 1.56 (≈ 4.95 µM) | 6.25 (≈ 19.8 µM) | 12.5 (≈ 39.6 µM) | 3.12 (≈ 9.89 µM) | 6.25 (≈ 19.8 µM) | 12.5 (≈ 39.6 µM) | 3.12 (≈ 9.89 µM) | CCOC(CCCN1Sc2ccccc2[S+]1[O-])OCC (centres unmarked) [Example 25, 2-(4,4-diethoxybutyl)-1,3,2-benzodithiazole-1-oxide] | –
7 | 1.56 (≈ 4.76 µM) | 3.12 (≈ 9.53 µM) | 3.12 (≈ 9.53 µM) | 12.5 (≈ 38.2 µM) | 1.56 (≈ 4.76 µM) | 3.12 (≈ 9.53 µM) | 0.78 (≈ 2.38 µM) | 3.12 (≈ 9.53 µM) | 6.25 (≈ 19.1 µM) | 0.78 (≈ 2.38 µM) | COC(=O)CCCCCCCN1Sc2ccccc2[S+]1[O-] (centres unmarked) [Example 26] | –
8 | 1.56 (≈ 7.38 µM) | 0.78 (≈ 3.69 µM) | 1.56 (≈ 7.38 µM) | 3.12 (≈ 14.8 µM) | 0.78 (≈ 3.69 µM) | 1.56 (≈ 7.38 µM) | 0.39 (≈ 1.85 µM) | 0.78 (≈ 3.69 µM) | 3.12 (≈ 14.8 µM) | 0.39 (≈ 1.85 µM) | [O-][S+]1c2ccccc2SN1C1CC1 (centres unmarked) [Example 27, 2-cyclopropyl-1,3,2-benzodithiazole-1-oxide] | –
